According to patent publication US20230085307A1, “PYRIDAZINONE COMPOUND AND HERBICIDE” (NISSAN CHEMICAL CORPORATION, priority 2019, published 2023):

How the values were obtained:
[1] = tested on: southern crabgrass; assay: Test Example 4: herbicidal effect by soil treatment (Table 19, symbol F); assay type: in vivo, southern crabgrass (Digitaria ciliaris); conditions: AAH 320 g/ha
Procedure, shortened: (§1)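 Three weeks of greenhouse growth at 25° C. to 30° C. followed a uniform surface spray of water-diluted emulsion at a predetermined herbicide amount. Seeds had been sown beforehand under about 1.5 cm of sterilized diluvial soil. Grading followed criteria set out in an earlier test.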

[2] = tested on: green foxtail; assay: Test Example 4: herbicidal effect by soil treatment (Table 19, symbol G); assay type: in vivo, green foxtail (Setaria viridis); conditions: AAH 320 g/ha
Procedure, shortened: as §1

[3] = tested on: barnyard grass; assay: Test Example 4: herbicidal effect by soil treatment (Table 19, symbol H); assay type: in vivo, barnyard grass (Echinochloa crus-galli); conditions: AAH 320 g/ha
Procedure, shortened: as §1

[4] = tested on: wild oat; assay: Test Example 4: herbicidal effect by soil treatment (Table 19, symbol I); assay type: in vivo, wild oat (Avena fatua); conditions: AAH 320 g/ha
Procedure, shortened: as §1

[5] = tested on: blackgrass; assay: Test Example 4: herbicidal effect by soil treatment (Table 19, symbol J); assay type: in vivo, blackgrass (Alopecurus myosuroides); conditions: AAH 320 g/ha
Procedure, shortened: as §1

[6] = tested on: Italian ryegrass; assay: Test Example 4: herbicidal effect by soil treatment (Table 19, symbol K); assay type: in vivo, Italian ryegrass (Lolium multiflorum); conditions: AAH 320 g/ha
Procedure, shortened: as §1

[7] = tested on: windgrass; assay: Test Example 4: herbicidal effect by soil treatment (Table 19, symbol L); assay type: in vivo, windgrass (Apera spica-venti); conditions: AAH 320 g/ha
Procedure, shortened: as §1

[8] = tested on: velvetleaf; assay: Test Example 4: herbicidal effect by soil treatment (Table 19, symbol M); assay type: in vivo, velvetleaf (Abutilon theophrasti); conditions: AAH 320 g/ha
Procedure, shortened: as §1

[9] = tested on: redroot pigweed; assay: Test Example 4: herbicidal effect by soil treatment (Table 19, symbol N); assay type: in vivo, redroot pigweed (Amaranthus retroflexus); conditions: AAH 320 g/ha
Procedure, shortened: as §1

[10] = tested on: lambsquarters; assay: Test Example 4: herbicidal effect by soil treatment (Table 19, symbol O); assay type: in vivo, lambsquarters (Chenopodium album); conditions: AAH 320 g/ha
Procedure, shortened: as §1

[11] = tested on: chickweed; assay: Test Example 4: herbicidal effect by soil treatment (Table 19, symbol P); assay type: in vivo, common chickweed (Stellaria media); conditions: AAH 320 g/ha
Procedure, shortened: as §1

[12] = tested on: persian speedwell; assay: Test Example 4: herbicidal effect by soil treatment (Table 19, symbol R); assay type: in vivo, Persian speedwell (Veronica persica); conditions: AAH 320 g/ha
Procedure, shortened: as §1

[13] = tested on: southern crabgrass; assay: Test Example 5: herbicidal effect by foliage application, plastic box (Table 20, symbol F); assay type: in vivo, southern crabgrass (Digitaria ciliaris); conditions: foliage application, AAH 320 g/ha, three weeks after application
Procedure, shortened: (§2)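 Plants sown in sterilized diluvial soil and grown 14 days in a greenhouse at 25° C to 30° C, then sprayed on the foliage with the compound's emulsion diluted in water to a predetermined herbicide amount. Injury to weeds and crops scored three weeks after application on a visual rating scale.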

[14] = tested on: green foxtail; assay: Test Example 5: herbicidal effect by foliage application, plastic box (Table 20, symbol G); assay type: in vivo, green foxtail (Setaria viridis); conditions: foliage application, AAH 320 g/ha, three weeks after application
Procedure, shortened: as §2

[15] = tested on: barnyard grass; assay: Test Example 5: herbicidal effect by foliage application, plastic box (Table 20, symbol H); assay type: in vivo, barnyard grass (Echinochloa crus-galli); conditions: foliage application, AAH 320 g/ha, three weeks after application
Procedure, shortened: as §2

[16] = tested on: wild oat; assay: Test Example 5: herbicidal effect by foliage application, plastic box (Table 20, symbol I); assay type: in vivo, wild oat (Avena fatua); conditions: foliage application, AAH 320 g/ha, three weeks after application
Procedure, shortened: as §2

[17] = tested on: blackgrass; assay: Test Example 5: herbicidal effect by foliage application, plastic box (Table 20, symbol J); assay type: in vivo, blackgrass (Alopecurus myosuroides); conditions: foliage application, AAH 320 g/ha, three weeks after application
Procedure, shortened: as §2

[18] = tested on: Italian ryegrass; assay: Test Example 5: herbicidal effect by foliage application, plastic box (Table 20, symbol K); assay type: in vivo, Italian ryegrass (Lolium multiflorum); conditions: foliage application, AAH 320 g/ha, three weeks after application
Procedure, shortened: as §2

[19] = tested on: windgrass; assay: Test Example 5: herbicidal effect by foliage application, plastic box (Table 20, symbol L); assay type: in vivo, windgrass (Apera spica-venti); conditions: foliage application, AAH 320 g/ha, three weeks after application
Procedure, shortened: as §2

[20] = tested on: velvetleaf; assay: Test Example 5: herbicidal effect by foliage application, plastic box (Table 20, symbol M); assay type: in vivo, velvetleaf (Abutilon theophrasti); conditions: foliage application, AAH 320 g/ha, three weeks after application
Procedure, shortened: as §2

[21] = tested on: redroot pigweed; assay: Test Example 5: herbicidal effect by foliage application, plastic box (Table 20, symbol N); assay type: in vivo, redroot pigweed (Amaranthus retroflexus); conditions: foliage application, AAH 320 g/ha, three weeks after application
Procedure, shortened: as §2

[22] = tested on: lambsquarters; assay: Test Example 5: herbicidal effect by foliage application, plastic box (Table 20, symbol O); assay type: in vivo, lambsquarters (Chenopodium album); conditions: foliage application, AAH 320 g/ha, three weeks after application
Procedure, shortened: as §2

[23] = tested on: chickweed; assay: Test Example 5: herbicidal effect by foliage application, plastic box (Table 20, symbol P); assay type: in vivo, common chickweed (Stellaria media); conditions: foliage application, AAH 320 g/ha, three weeks after application
Procedure, shortened: as §2

[24] = tested on: persian speedwell; assay: Test Example 5: herbicidal effect by foliage application, plastic box (Table 20, symbol R); assay type: in vivo, Persian speedwell (Veronica persica); conditions: foliage application, AAH 320 g/ha, three weeks after application
Procedure, shortened: as §2

CCCC(=O)Oc1c(OC)nn(C)c(=O)c1-c1c(-c2ccc(OC)cc2OC)sc2ccccc12 [1-181]
F: southern crabgrass, herbicidal effect rating [1]: 0 (Herbicidal rate of 5% or less (almost no effect)) | G: green foxtail, herbicidal effect rating [2]: 0 (Herbicidal rate of 5% or less (almost no effect)) | H: barnyard grass, herbicidal effect rating [3]: 0 (Herbicidal rate of 5% or less (almost no effect)) | I: wild oat, herbicidal effect rating [4]: 0 (Herbicidal rate of 5% or less (almost no effect)) | J: blackgrass, herbicidal effect rating [5]: 0 (Herbicidal rate of 5% or less (almost no effect)) | K: Italian ryegrass, herbicidal effect rating [6]: 0 (Herbicidal rate of 5% or less (almost no effect)) | L: windgrass, herbicidal effect rating [7]: 0 (Herbicidal rate of 5% or less (almost no effect)) | M: velvetleaf, herbicidal effect rating [8]: 0 (Herbicidal rate of 5% or less (almost no effect)) | N: redroot pigweed, herbicidal effect rating [9]: 0 (Herbicidal rate of 5% or less (almost no effect)) | O: lambsquarters, herbicidal effect rating [10]: 0 (Herbicidal rate of 5% or less (almost no effect)) | P: chickweed, herbicidal effect rating [11]: 1 (Herbicidal rate of 5% or more and less than 20%) | R: persian speedwell, herbicidal effect rating [12]: 1 (Herbicidal rate of 5% or more and less than 20%) | F: southern crabgrass, herbicidal effect [13]: 0 (Herbicidal rate of 5% or less (almost no effect)) | G: green foxtail, herbicidal effect [14]: 0 (Herbicidal rate of 5% or less (almost no effect)) | H: barnyard grass, herbicidal effect [15]: 0 (Herbicidal rate of 5% or less (almost no effect)) | I: wild oat, herbicidal effect [16]: 0 (Herbicidal rate of 5% or less (almost no effect)) | J: blackgrass, herbicidal effect [17]: 0 (Herbicidal rate of 5% or less (almost no effect)) | K: Italian ryegrass, herbicidal effect [18]: 0 (Herbicidal rate of 5% or less (almost no effect)) | L: windgrass, herbicidal effect [19]: 0 (Herbicidal rate of 5% or less (almost no effect)) | M: velvetleaf, herbicidal effect [20]: 0 (Herbicidal rate of 5% or less (almost no effect)) | N: redroot pigweed, herbicidal effect [21]: 0 (Herbicidal rate of 5% or less (almost no effect)) | O: lambsquarters, herbicidal effect [22]: 1 (Herbicidal rate of 5% or more and less than 20%) | P: chickweed, herbicidal effect [23]: 4 (Herbicidal rate of 70% or more and less than 90%) | R: persian speedwell, herbicidal effect [24]: 1 (Herbicidal rate of 5% or more and less than 20%)
